Values of other authors in US20250017894A1, “Formulation for Nasal Delivery of Cannabinoids” (priority 2019, published 2025).

C=C(C)[C@@H]1CCC(C)=C[C@H]1c1c(O)cc(CCCCC)cc1O [CBD, Cannabidiol]
bioavailability, inhalation using vaporized CBD (inhalation of vaporized CBD): 26-36%
bioavailability for intranasal administration (intranasal administration): 34-46%
oral bioavailability (oral administration): 6-15%
bioavailability, sublingual administration (sublingual administration): 20-35%
